Assay results as given in US8546320B2, “Hsp9O-targeted anti-cancer chimeric peptide” (Kyoto University, priority 2008, dated 2013).
Where a SMILES comes first, the peptide text is derived from it.

Key:
cancer cells = experiment: Cell viability assay, summary statements on cancer cells; type: cell-based; conditions: single mutation in TPR or Antp region of Antp-TPR
Caki-1 = type: cell-based, human; conditions: Caki-1; for Anti-cancer activity (% relative to wild-type peptide) / Decrease in cell survival rate (% relative to wild-type peptide): wild-type peptide = 100%
U937 = experiment: cells; type: cell-based, human; conditions: for killing effect compared with the wild-type peptide / Anti-cancer activity (% relative to wild-type peptide) / Decrease in cell survival rate (% relative to wild-type peptide): U937; for Anti-cancer activity (% relative to wild-type peptide) / Decrease in cell survival rate (% relative to wild-type peptide): wild-type peptide = 100%
Method: A total of 3×10^3 cells per well were inoculated onto a 96 well plate, and incubated in a medium containing 10% FBS with 100 μl of a peptide diluted stepwise at 37° C. for 48 to 72 hours. The survival rate of the cells was measured by using WST-8 solution (Cell Count Reagent SF; Nacalai Tesque, Inc.).

Row | SMILES | effect compared with the wild-type protein (summary of mutations) (cancer cells) | Anti-cancer activity (% relative to wild-type peptide) (Caki-1) | Decrease in cell survival rate (% relative to wild-type peptide) (Caki-1) | Cell Survival Rate (%) (U937) | killing effect compared with the wild-type peptide (U937) | Anti-cancer activity (% relative to wild-type peptide) (U937) | Decrease in cell survival rate (% relative to wild-type peptide) (U937) | killing effect compared with the wild-type peptide (Caki-1)
1 | CC[C@H](C)[C@H](NC(=O)[C@H](CCCNC(=N)N)NC(=O)[C@H](C)NC(=O)[C@H](Cc1ccc(O)cc1)NC(=O)[C@H](C)NC(=O)[C@H](CCCCN)NC(=O)[C@H](CCCCN)NC(=O)[C@H](CCCCN)NC(=O)[C@H](Cc1c[nH]c2ccccc12)NC(=O)[C@H](CCCCN)NC(=O)[C@H](CCSC)NC(=O)[C@H](CCCNC(=N)N)NC(=O)[C@H](CCCNC(=N)N)NC(=O)[C@H](CC(N)=O)NC(=O)[C@H](CCC(N)=O)NC(=O)[C@H](Cc1ccccc1)NC(=O)[C@H](Cc1c[nH]c2ccccc12)NC(=O)[C@@H](NC(=O)[C@H](CCCCN)NC(=O)[C@@H](NC(=O)[C@H](CCC(N)=O)NC(=O)[C@@H](N)CCCNC(=N)N)[C@@H](C)CC)[C@@H](C)CC)C(=O)NCC(=O)N[C@@H](CCC(N)=O)C(=O)N[C@@H](CO)C(=O)N[C@@H](Cc1ccc(O)cc1)C(=O)N[C@@H](Cc1ccccc1)C(=O)N[C@@H](CCCCN)C(=O)O [Antp-N8Q] (H-RQIKIWFQNRRMKWKKKAYARIGQSYFK-OH; N-terminus and C-terminus assumed) | effect higher than the wild-type protein | 98.57% | 89.35% | 10.06% | increase in effect | 117.17% | 230.94% | 
2 | CC[C@H](C)[C@H](NC(=O)[C@H](CCCNC(=N)N)NC(=O)[C@H](C)NC(=O)[C@H](Cc1ccc(O)cc1)NC(=O)[C@H](C)NC(=O)[C@H](C)NC(=O)[C@H](CCCCN)NC(=O)[C@H](CCCCN)NC(=O)[C@H](Cc1c[nH]c2ccccc12)NC(=O)[C@H](CCCCN)NC(=O)[C@H](CCSC)NC(=O)[C@H](CCCNC(=N)N)NC(=O)[C@H](CCCNC(=N)N)NC(=O)[C@H](CC(N)=O)NC(=O)[C@H](CCC(N)=O)NC(=O)[C@H](Cc1ccccc1)NC(=O)[C@H](Cc1c[nH]c2ccccc12)NC(=O)[C@@H](NC(=O)[C@H](CCCCN)NC(=O)[C@@H](NC(=O)[C@H](CCC(N)=O)NC(=O)[C@@H](N)CCCNC(=N)N)[C@@H](C)CC)[C@@H](C)CC)C(=O)NCC(=O)N[C@@H](CC(N)=O)C(=O)N[C@@H](CO)C(=O)N[C@@H](Cc1ccc(O)cc1)C(=O)N[C@@H](Cc1ccccc1)C(=O)N[C@@H](CCCCN)C(=O)O [Antp-K1A] (H-RQIKIWFQNRRMKWKKAAYARIGNSYFK-OH; N-terminus and C-terminus assumed) | effective but with a lower effect than the wild-type protein | 20.29% | 13.04% | 93.55% |  | 8.41% | 24.84% | 
3 | CC[C@H](C)[C@H](NC(=O)[C@H](CCCNC(=N)N)NC(=O)[C@H](C)NC(=O)[C@H](Cc1ccc(O)cc1)NC(=O)[C@H](C)NC(=O)[C@H](CCCCN)NC(=O)[C@H](CCCCN)NC(=O)[C@H](CCCCN)NC(=O)[C@H](Cc1c[nH]c2ccccc12)NC(=O)[C@H](CCCCN)NC(=O)[C@H](CCSC)NC(=O)[C@H](CCCNC(=N)N)NC(=O)[C@H](CCCNC(=N)N)NC(=O)[C@H](CC(N)=O)NC(=O)[C@H](CCC(N)=O)NC(=O)[C@H](Cc1ccccc1)NC(=O)[C@H](Cc1c[nH]c2ccccc12)NC(=O)[C@@H](NC(=O)[C@H](CCCCN)NC(=O)[C@@H](NC(=O)[C@H](CCC(N)=O)NC(=O)[C@@H](N)CCCNC(=N)N)[C@@H](C)CC)[C@@H](C)CC)C(=O)NCC(=O)N[C@@H](CC(N)=O)C(=O)N[C@@H](CO)C(=O)N[C@@H](CO)C(=O)N[C@@H](Cc1ccccc1)C(=O)N[C@@H](CCCCN)C(=O)O [Antp-Y10S] (H-RQIKIWFQNRRMKWKKKAYARIGNSSFK-OH; N-terminus and C-terminus assumed) | effect similar to that of the wild-type protein | 74.56% | 31.97% | 28.05% |  | 93.73% | 82.83% | 
4 | CC[C@H](C)[C@H](NC(=O)[C@H](CCCNC(=N)N)NC(=O)[C@H](C)NC(=O)[C@H](Cc1ccc(O)cc1)NC(=O)[C@H](C)NC(=O)[C@H](CCCCN)NC(=O)[C@H](CCCCN)NC(=O)[C@H](CCCCN)NC(=O)[C@H](Cc1c[nH]c2ccccc12)NC(=O)[C@H](CCCCN)NC(=O)[C@H](CCSC)NC(=O)[C@H](CCCNC(=N)N)NC(=O)[C@H](CCCNC(=N)N)NC(=O)[C@H](CC(N)=O)NC(=O)[C@H](CCC(N)=O)NC(=O)[C@H](Cc1ccccc1)NC(=O)[C@H](Cc1c[nH]c2ccccc12)NC(=O)[C@@H](NC(=O)[C@H](CCCCN)NC(=O)[C@@H](NC(=O)[C@H](CCC(N)=O)NC(=O)[C@@H](N)CCCNC(=N)N)[C@@H](C)CC)[C@@H](C)CC)C(=O)N[C@@H](C)C(=O)N[C@@H](CC(N)=O)C(=O)N[C@@H](CO)C(=O)N[C@@H](Cc1ccc(O)cc1)C(=O)N[C@@H](Cc1ccccc1)C(=O)N[C@@H](CCCCN)C(=O)O [Antp-G7A] (H-RQIKIWFQNRRMKWKKKAYARIANSYFK-OH; N-terminus and C-terminus assumed) | effect similar to that of the wild-type protein | 96.23% | 76.07% | 16.85% | increase in effect | 108.32% | 137.88% | 
5 | CC[C@H](C)[C@H](NC(=O)[C@H](CCCNC(=N)N)NC(=O)[C@H](C)NC(=O)[C@H](Cc1ccc(O)cc1)NC(=O)[C@H](C)NC(=O)[C@H](CCCCN)NC(=O)[C@H](CCCCN)NC(=O)[C@H](CCCCN)NC(=O)[C@H](Cc1c[nH]c2ccccc12)NC(=O)[C@H](CCCCN)NC(=O)[C@H](CCSC)NC(=O)[C@H](CCCNC(=N)N)NC(=O)[C@H](CCCNC(=N)N)NC(=O)[C@H](CC(N)=O)NC(=O)[C@H](CCC(N)=O)NC(=O)[C@H](Cc1ccccc1)NC(=O)[C@H](Cc1c[nH]c2ccccc12)NC(=O)[C@@H](NC(=O)[C@H](CCCCN)NC(=O)[C@@H](NC(=O)[C@H](CCC(N)=O)NC(=O)[C@@H](N)CCCNC(=N)N)[C@@H](C)CC)[C@@H](C)CC)C(=O)NCC(=O)N[C@@H](CC(N)=O)C(=O)N[C@@H](CO)C(=O)N[C@@H](Cc1ccc(O)cc1)C(=O)N[C@@H](Cc1ccccc1)C(=O)N[C@@H](CCCNC(=N)N)C(=O)O [Antp-K12R] (H-RQIKIWFQNRRMKWKKKAYARIGNSYFR-OH; N-terminus and C-terminus assumed) | effect similar to that of the wild-type protein | 90.20% | 54.95% | 21.95% | increase in effect | 101.68% | 105.89% | 
6 | CC[C@H](C)[C@H](NC(=O)[C@H](CCCCN)NC(=O)[C@@H](NC(=O)[C@H](CCC(N)=O)NC(=O)[C@@H](N)CCCNC(=N)N)[C@@H](C)CC)C(=O)N[C@@H](Cc1c[nH]c2ccccc12)C(=O)N[C@@H](Cc1ccccc1)C(=O)N[C@@H](CCC(N)=O)C(=O)N[C@@H](CC(N)=O)C(=O)N[C@@H](CCCNC(=N)N)C(=O)N[C@@H](CCCNC(=N)N)C(=O)N[C@@H](CCSC)C(=O)N[C@@H](CCCCN)C(=O)N[C@@H](Cc1c[nH]c2ccccc12)C(=O)N[C@@H](CCCCN)C(=O)N[C@@H](CCCCN)C(=O)N[C@@H](CCCCN)C(=O)N[C@@H](C)C(=O)N[C@@H](Cc1ccc(O)cc1)C(=O)N[C@@H](C)C(=O)N[C@@H](CCCNC(=N)N)C(=O)N[C@@H](CCCNC(=N)N)C(=O)NCC(=O)N[C@@H](CC(N)=O)C(=O)N[C@@H](CO)C(=O)N[C@@H](Cc1ccc(O)cc1)C(=O)N[C@@H](Cc1ccccc1)C(=O)N[C@@H](CCCCN)C(=O)O [Antp-I6R] (H-RQIKIWFQNRRMKWKKKAYARRGNSYFK-OH; N-terminus and C-terminus assumed) | effective but with a lower effect than the wild-type protein | 1.95% | 10.87% | 91.60% |  | 10.92% | 25.36% | 
7 | CC[C@H](C)[C@H](NC(=O)[C@H](CCCNC(=N)N)NC(=O)[C@H](C)NC(=O)[C@H](Cc1ccc(O)cc1)NC(=O)[C@H](C)NC(=O)[C@H](CCCCN)NC(=O)[C@H](CCCCN)NC(=O)[C@H](CCCCN)NC(=O)[C@H](Cc1c[nH]c2ccccc12)NC(=O)[C@H](CCCCN)NC(=O)[C@H](CCSC)NC(=O)[C@H](CCCNC(=N)N)NC(=O)[C@H](CCCNC(=N)N)NC(=O)[C@H](CC(N)=O)NC(=O)[C@H](CCC(N)=O)NC(=O)[C@H](Cc1ccccc1)NC(=O)[C@H](Cc1c[nH]c2ccccc12)NC(=O)[C@@H](NC(=O)[C@H](CCCCN)NC(=O)[C@@H](NC(=O)[C@H](CCC(N)=O)NC(=O)[C@@H](N)CCCNC(=N)N)[C@@H](C)CC)[C@@H](C)CC)C(=O)NCC(=O)N[C@@H](CC(N)=O)C(=O)N[C@@H](CO)C(=O)N[C@@H](Cc1ccc(O)cc1)C(=O)N[C@@H](Cc1ccc(O)cc1)C(=O)N[C@@H](CCCCN)C(=O)O [Antp-F11Y] (H-RQIKIWFQNRRMKWKKKAYARIGNSYYK-OH; N-terminus and C-terminus assumed) | effect higher than the wild-type protein | 110.50% | 820.08% | 1.10% | increase in effect | 128.84% | 2116.95% | stronger than that of the wild-type peptide
